System: premenopausal women with heavy uterine bleeding due to uterine fibroids
Assay: Double-blind, randomized, placebo-controlled clinical study; menstrual bleeding assessed by pictorial blood loss assessment chart (PBAC), with or without later uterine artery embolization (UAE)
Type: in vivo, human
Conditions: for % Patient with PBAC < 75 at baseline / PBAC at baseline: before treatment; for PBAC at baseline / PBAC 3 months after treatment stop / PBAC 6 months after treatment stop / PBAC at week 13 of treatment: Mean +/- SD
Description: A double-blind, randomized, placebo-controlled study was conducted to evaluate the long term effect of ulipristal acetate in the treatment of uterine fibroids. Patients included premenopausal women 18-50 years with heavy uterine bleeding due to uterine fibroids who were eligible for surgery. These patients met the criteria of a Pictorial Bleeding Assessment Chart (PBAC) score >100 during days 1-8 of menstruation.
The patients were randomized in a 2:2:1 manner to receive for 12 weeks, either ulipristal acetate (UPA) 5 mg or ulipristal acetate 10 mg or placebo. In addition, all patients received concomitant iron therapy (1 tablet of 80 mg or iron once daily, Tardyfero®). The reference to 2:2:1 means that for every 5 patients, two would be randomized to receive UA 5 mg, two to receive UA 10 mg and one to receive placebo.
Forty-eight patients received a daily placebo treatment, 95 patients received a daily dose of 5 mg ulipristal acetate (Esmya®), and 98 patients received a daily dose of 10 mg ulipristal acetate (Esmya®). […] Thirty-three subjects underwent a Uterine Artery Embolization at or after week 13: 4 patients in the placebo group (group 4), 11 patients in the 5 mg ulipristal (Esmya®) group (group 5) and 18 patients in the 10 mg ulipristal (Esmya®)) group (group 6).
For study enrollment as well as follow-up assessment, menstrual bleeding was assessed using the pictorial blood loss assessment chart (PBAC) developed by Higham and colleagues (Higham J M, O'Brien P M, Shaw R W. Assessment of menstrual blood loss using a pictorial chart. Br J Obstet Gynaecol 1990; 97:734-9). The PBAC is one of the current standard methods used to objectively estimate menstrual blood loss and diagnose menorrhagia. Abnormal bleeding is defined as PBAC score >100 over 8 days of menstruation. Normal menstrual bleeding PBAC is <75. Amenorrhea is PBAC=0.
The PBAC score was assessed before treatment (Baseline), at week 13 after the end of treatment with ulipristal, at 3 months and 6 months after […].
The PBAC and the % of patients with a PBAC <75 was reported before treatment (Baseline), at week 13 after the end of treatment with ulipristal, at 3 months and 6 months after the treatment stop.

[1] = 5 mg daily, no UAE or any other surgery (Group 2)
[2] = 5 mg daily, no UAE or any other surgery (Group 2), listed as ulipristal
[3] = 5 mg daily, with UAE (Group 5), listed as ulipristal
[4] = 10 mg daily, no UAE or any other surgery (Group 3)
[5] = 10 mg daily, no UAE or any other surgery (Group 3), listed as ulipristal
[6] = 10 mg daily, with UAE (Group 6)
[7] = 10 mg daily, with UAE (Group 6), listed as ulipristal
[8] = 5 mg daily, with UAE performed after treatment stop (Group 5)
[9] = 10 mg daily, with UAE performed after treatment stop (Group 6)

CC(=O)O[C@]1(C(C)=O)CC[C@H]2[C@@H]3CCC4=CC(=O)CCC4=C3[C@@H](c3ccc(N(C)C)cc3)C[C@@]21C [Esmya, 17α-acetoxy-11β-[4-N,N-dimethylaminophenyl)-19-norpregna-4,9-diene-3,20-dione]
% Patient with PBAC < 75, 3 months after end of treatment [1]: 15%
% Patient with PBAC < 75, 6 months after end of treatment [1]: 17%
% Patient with PBAC < 75 at week 13 of treatment [1]: 98%
% Patient with PBAC < 75 at baseline [1]: 0%
% Patient with PBAC < 75, 3 months after end of treatment [2]: 15%
% Patient with PBAC < 75 at week 13 of treatment [2]: 98%
% Patient with PBAC < 75, 3 months after end of treatment (5 mg daily, with UAE (Group 5)): 36%
% Patient with PBAC < 75, 6 months after end of treatment (5 mg daily, with UAE (Group 5)): 27%
% Patient with PBAC < 75 at week 13 of treatment (5 mg daily, with UAE (Group 5)): 100%
% Patient with PBAC < 75 at baseline (5 mg daily, with UAE (Group 5)): 0%
% Patient with PBAC < 75, 3 months after end of treatment [3]: 36%
% Patient with PBAC < 75, 6 months after end of treatment [3]: 27%
% Patient with PBAC < 75 at week 13 of treatment [3]: 100%
% Patient with PBAC < 75, 3 months after end of treatment [4]: 17%
% Patient with PBAC < 75, 6 months after end of treatment [4]: 26%
% Patient with PBAC < 75 at week 13 of treatment [4]: 97%
% Patient with PBAC < 75 at baseline [4]: 0%
% Patient with PBAC < 75, 3 months after end of treatment [5]: 17%
% Patient with PBAC < 75 at week 13 of treatment [5]: 97%
% Patient with PBAC < 75, 3 months after end of treatment [6]: 60%
% Patient with PBAC < 75, 6 months after end of treatment [6]: 53%
% Patient with PBAC < 75 at week 13 of treatment [6]: 100%
% Patient with PBAC < 75 at baseline [6]: 0%
% Patient with PBAC < 75, 3 months after end of treatment [7]: 60%
% Patient with PBAC < 75, 6 months after end of treatment [7]: 53%
% Patient with PBAC < 75 at week 13 of treatment [7]: 100%
PBAC at baseline (5 mg daily oral 12 weeks, no UAE or any other surgery (Group 2)): 419 +/− 281
PBAC at baseline (5 mg daily oral 12 weeks, with UAE performed after treatment stop (Group 5)): 490 +/− 231
PBAC 3 months after treatment stop [1]: 337 +/− 300
PBAC 6 months after treatment stop [1]: 338 +/− 233
PBAC at week 13 of treatment [1]: 13 +/− 69
PBAC 3 months after treatment stop [8]: 202 +/− 102
PBAC 6 months after treatment stop [8]: 207 +/− 117
PBAC at week 13 of treatment [8]: 25 +/− 60
PBAC at baseline (10 mg daily oral 12 weeks, no UAE or any other surgery (Group 3)): 340 +/− 187
PBAC at baseline (10 mg daily oral 12 weeks, with UAE performed after treatment stop (Group 6)): 375 +/− 135
PBAC 3 months after treatment stop [4]: 417 +/− 669
PBAC 6 months after treatment stop [4]: 203 +/− 161
PBAC at week 13 of treatment [4]: 2 +/− 13
PBAC 3 months after treatment stop [9]: 120 +/− 55
PBAC 6 months after treatment stop [9]: 136 +/− 70
PBAC at week 13 of treatment [9]: 0 +/− 0
effect for controlling menstrual bleeding resulting from oral administration prior to UAE (oral ulipristal prior to UAE versus ulipristal alone and UAE alone): synergistic effect
